According to ChEMBL document CHEMBL5465560, “Selectivity Literature for EUbOPEN Chemogenomic Library” (2024):
Each block holds one compound with its values, some of them ahead of it.

What was measured:
[1] = target: T1, Discoidin domain-containing receptor 2 (Homo sapiens) (UniProt Q16832); experiment: Selectivity interaction (Ambit KINOMEscan and KiNATiv profiling in Jurkat cells) EUB0000090b DDR2; type: cell-based; details: at 1 µM
T1 sequence (whole entry): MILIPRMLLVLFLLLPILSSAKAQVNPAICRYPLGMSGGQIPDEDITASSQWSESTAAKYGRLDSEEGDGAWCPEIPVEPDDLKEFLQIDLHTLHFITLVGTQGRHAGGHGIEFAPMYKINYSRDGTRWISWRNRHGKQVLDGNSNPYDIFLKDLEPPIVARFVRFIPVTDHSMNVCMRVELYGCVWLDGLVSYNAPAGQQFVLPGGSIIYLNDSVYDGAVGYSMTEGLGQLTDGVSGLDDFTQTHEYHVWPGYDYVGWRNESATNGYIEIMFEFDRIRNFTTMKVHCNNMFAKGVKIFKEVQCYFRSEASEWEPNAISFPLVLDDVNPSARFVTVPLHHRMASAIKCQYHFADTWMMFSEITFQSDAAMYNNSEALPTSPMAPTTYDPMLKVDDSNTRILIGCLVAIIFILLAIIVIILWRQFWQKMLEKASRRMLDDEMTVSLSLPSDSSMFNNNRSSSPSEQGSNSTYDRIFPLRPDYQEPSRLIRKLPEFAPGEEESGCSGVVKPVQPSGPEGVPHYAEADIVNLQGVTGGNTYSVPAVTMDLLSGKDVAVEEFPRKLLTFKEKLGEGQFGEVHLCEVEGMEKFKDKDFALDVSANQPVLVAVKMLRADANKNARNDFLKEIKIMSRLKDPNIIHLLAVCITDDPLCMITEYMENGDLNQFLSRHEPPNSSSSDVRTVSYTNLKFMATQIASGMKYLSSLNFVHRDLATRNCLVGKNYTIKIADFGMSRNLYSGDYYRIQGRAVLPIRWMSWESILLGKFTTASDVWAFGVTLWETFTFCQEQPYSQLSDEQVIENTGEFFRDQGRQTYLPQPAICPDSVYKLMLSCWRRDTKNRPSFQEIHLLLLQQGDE

[2] = target: Ribosomal protein S6 kinase alpha-3 (Homo sapiens, UniProt P51812); experiment: Selectivity interaction (KinomeScan (DiscoverX)) EUB0000655a RPS6KA3; details: at 10 µM
Sequence of Ribosomal protein S6 kinase alpha-3 (P51812 whole entry): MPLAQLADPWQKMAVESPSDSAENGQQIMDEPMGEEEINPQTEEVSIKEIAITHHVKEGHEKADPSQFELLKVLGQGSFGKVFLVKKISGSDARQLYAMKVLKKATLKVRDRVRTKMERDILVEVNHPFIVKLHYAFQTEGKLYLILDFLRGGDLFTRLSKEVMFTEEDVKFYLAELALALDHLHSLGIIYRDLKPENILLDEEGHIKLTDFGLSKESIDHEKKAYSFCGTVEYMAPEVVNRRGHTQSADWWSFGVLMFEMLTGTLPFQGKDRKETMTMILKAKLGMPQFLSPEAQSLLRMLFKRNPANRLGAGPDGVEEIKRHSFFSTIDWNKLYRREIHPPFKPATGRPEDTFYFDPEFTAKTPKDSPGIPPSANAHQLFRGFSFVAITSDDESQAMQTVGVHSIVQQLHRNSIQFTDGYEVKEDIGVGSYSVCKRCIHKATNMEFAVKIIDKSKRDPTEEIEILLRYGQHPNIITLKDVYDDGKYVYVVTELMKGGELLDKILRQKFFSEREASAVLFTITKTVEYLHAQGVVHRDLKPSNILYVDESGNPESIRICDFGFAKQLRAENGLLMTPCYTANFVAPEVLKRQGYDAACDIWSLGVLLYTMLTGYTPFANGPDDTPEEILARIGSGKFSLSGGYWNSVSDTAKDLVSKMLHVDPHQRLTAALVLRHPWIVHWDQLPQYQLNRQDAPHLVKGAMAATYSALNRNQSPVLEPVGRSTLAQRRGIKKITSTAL

[3] = target: T2, Serine/threonine-protein kinase Nek2 (Homo sapiens) (UniProt P51955); experiment: Selectivity interaction (KinomeScan (DiscoverX)) EUB0001079a NEK2; details: at 1 µM
T2 sequence (whole entry): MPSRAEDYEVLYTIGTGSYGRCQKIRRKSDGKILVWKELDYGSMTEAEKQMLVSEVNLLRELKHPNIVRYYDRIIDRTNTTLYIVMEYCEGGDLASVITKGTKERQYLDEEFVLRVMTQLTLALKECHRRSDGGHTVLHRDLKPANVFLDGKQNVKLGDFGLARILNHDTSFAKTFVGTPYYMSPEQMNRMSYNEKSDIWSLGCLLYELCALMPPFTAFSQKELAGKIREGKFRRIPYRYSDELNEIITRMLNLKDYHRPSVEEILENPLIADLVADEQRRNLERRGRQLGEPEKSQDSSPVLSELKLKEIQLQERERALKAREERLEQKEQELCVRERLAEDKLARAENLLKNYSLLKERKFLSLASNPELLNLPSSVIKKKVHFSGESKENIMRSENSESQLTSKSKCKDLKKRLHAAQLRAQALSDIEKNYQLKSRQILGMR

[4] = target: T3, Cytoplasmic tyrosine-protein kinase BMX (Homo sapiens) (UniProt P51813); experiment: Selectivity interaction (Millipore kinase profiler) EUB0000124b BMX; details: at 10 µM
T3 sequence (whole entry): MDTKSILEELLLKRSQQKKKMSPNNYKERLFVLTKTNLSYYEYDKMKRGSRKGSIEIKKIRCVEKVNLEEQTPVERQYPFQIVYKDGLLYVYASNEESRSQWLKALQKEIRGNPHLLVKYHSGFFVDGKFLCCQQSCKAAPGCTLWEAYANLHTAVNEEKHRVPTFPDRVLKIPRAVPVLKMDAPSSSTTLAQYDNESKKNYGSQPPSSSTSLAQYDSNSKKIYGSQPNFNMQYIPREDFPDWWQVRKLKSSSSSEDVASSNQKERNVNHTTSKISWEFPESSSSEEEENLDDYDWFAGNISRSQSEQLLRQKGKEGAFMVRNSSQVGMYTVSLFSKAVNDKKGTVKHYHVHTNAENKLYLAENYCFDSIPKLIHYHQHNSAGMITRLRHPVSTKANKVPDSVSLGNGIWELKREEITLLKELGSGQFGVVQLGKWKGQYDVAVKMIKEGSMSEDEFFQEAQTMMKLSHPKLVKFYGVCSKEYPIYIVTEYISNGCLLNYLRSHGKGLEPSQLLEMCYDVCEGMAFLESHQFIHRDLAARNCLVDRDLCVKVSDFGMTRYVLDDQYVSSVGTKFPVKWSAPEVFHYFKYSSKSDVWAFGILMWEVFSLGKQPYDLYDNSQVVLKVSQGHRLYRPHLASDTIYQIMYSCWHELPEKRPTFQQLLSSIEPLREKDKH

[5] = target: Serine/threonine-protein kinase PAK 6 (Homo sapiens) (UniProt Q9NQU5); experiment: Selectivity interaction (KinomeScan (DiscoverX)) EUB0000045b PAK6
Sequence of Serine/threonine-protein kinase PAK 6 (Homo sapiens) (Q9NQU5 whole entry, looked up): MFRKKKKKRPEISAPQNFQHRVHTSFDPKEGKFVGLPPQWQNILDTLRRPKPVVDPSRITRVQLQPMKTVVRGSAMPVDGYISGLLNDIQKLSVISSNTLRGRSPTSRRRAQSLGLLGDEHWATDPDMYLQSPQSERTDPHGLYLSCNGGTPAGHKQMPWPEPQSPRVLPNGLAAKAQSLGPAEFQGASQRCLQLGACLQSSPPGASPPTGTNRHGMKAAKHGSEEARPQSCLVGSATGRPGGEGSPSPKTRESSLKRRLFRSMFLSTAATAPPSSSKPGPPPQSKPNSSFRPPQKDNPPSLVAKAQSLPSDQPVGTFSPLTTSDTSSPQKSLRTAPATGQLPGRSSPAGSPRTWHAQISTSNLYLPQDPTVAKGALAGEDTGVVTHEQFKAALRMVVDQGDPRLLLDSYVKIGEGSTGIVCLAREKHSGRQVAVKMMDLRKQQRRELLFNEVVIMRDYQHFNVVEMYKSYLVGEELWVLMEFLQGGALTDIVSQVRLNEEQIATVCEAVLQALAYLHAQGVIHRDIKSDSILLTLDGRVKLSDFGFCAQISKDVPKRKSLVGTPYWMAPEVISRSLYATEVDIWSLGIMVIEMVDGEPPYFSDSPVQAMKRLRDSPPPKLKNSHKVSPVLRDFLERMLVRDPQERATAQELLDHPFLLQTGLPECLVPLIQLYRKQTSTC

[6] = target: Serine/threonine-protein kinase 10 (Homo sapiens) (UniProt O94804); experiment: Selectivity interaction (ActivX KiNativ screen (kinase selectivity in THP-1 cell lysates)) EUB0000639a STK10; type: subcellular; details: lysate, at 0.01 µM
Sequence of Serine/threonine-protein kinase 10 (Homo sapiens) (O94804 whole entry, looked up): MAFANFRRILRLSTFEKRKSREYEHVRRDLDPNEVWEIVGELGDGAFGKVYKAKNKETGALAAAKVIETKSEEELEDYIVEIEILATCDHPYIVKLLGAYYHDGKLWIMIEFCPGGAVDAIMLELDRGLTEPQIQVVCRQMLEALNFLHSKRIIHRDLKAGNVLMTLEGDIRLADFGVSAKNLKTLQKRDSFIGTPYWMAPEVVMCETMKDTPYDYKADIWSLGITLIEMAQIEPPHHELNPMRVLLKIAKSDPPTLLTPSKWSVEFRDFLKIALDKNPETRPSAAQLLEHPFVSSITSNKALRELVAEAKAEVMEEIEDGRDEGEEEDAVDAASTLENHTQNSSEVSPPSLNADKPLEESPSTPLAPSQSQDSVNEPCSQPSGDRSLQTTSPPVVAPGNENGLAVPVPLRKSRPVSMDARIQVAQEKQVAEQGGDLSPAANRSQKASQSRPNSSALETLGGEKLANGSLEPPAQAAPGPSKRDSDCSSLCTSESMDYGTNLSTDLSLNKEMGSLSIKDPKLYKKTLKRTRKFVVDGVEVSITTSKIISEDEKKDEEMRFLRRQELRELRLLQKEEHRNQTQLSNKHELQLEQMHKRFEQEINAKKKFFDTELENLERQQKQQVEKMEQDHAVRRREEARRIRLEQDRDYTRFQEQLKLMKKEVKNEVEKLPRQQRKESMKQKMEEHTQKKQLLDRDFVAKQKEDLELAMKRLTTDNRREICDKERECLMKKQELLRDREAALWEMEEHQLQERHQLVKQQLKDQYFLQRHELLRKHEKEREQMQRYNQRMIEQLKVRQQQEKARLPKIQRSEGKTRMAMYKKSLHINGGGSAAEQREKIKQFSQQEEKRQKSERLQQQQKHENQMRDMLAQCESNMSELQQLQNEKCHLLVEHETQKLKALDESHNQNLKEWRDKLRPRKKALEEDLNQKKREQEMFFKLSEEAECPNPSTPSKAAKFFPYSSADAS

[7] = target: Ribosomal protein S6 kinase alpha-6 (Homo sapiens, UniProt Q9UK32); experiment: Selectivity interaction (KinomeScan (DiscoverX)) EUB0000311b RPS6KA6; details: at 1 µM
Sequence of Ribosomal protein S6 kinase alpha-6 (Q9UK32 whole entry): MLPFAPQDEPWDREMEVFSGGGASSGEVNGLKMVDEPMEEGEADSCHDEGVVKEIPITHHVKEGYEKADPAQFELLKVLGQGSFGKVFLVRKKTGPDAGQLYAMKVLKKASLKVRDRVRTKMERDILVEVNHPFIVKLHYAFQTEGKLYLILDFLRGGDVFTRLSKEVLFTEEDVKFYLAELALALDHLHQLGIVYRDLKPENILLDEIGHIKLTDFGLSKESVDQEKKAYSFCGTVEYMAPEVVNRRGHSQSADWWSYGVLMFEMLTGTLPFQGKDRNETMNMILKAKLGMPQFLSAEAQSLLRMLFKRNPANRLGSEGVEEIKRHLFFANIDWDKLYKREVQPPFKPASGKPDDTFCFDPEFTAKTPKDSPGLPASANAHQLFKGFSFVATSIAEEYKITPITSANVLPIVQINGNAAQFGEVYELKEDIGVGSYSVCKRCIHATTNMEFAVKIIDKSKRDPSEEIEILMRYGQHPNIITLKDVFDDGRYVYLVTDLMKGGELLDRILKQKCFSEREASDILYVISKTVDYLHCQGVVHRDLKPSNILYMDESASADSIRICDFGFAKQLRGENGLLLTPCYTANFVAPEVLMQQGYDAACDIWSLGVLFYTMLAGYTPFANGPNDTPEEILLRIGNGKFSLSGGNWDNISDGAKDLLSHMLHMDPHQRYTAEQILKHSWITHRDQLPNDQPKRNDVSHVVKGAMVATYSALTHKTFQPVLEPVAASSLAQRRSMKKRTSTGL

SMILES: CN(C)C/C=C/C(=O)Nc1ccc(C(=O)N2CCCC(Nc3ncc(Cl)c(-c4c[nH]c5ccccc45)n3)C2)cc1 (stereo not drawn)
% of control [1]: 100%

SMILES: CN(C)CCOc1ccc(-c2nc(-c3ccncc3)c(-c3ccc4c(c3)CC/C4=N\O)[nH]2)cc1
% of control [2]: 67%

SMILES: Nc1cnc(N2CCc3cc(S(=O)(=O)Nc4c(F)cc(Cl)cc4F)cc(N4CCCC4=O)c32)nc1 [TP-020n]
% of control [3]: 89%

% of control [4]: 93%
SMILES: CC(=O)Nc1cccc(-n2c(=O)n(C3CC3)c(=O)c3c(Nc4ccc(I)cc4F)n(C)c(=O)c(C)c32)c1

SMILES: C=CC(=O)Nc1cc(-n2c(=O)ccc3cnc4ccc(-c5ccc(NS(C)(=O)=O)cc5)cc4c32)ccc1C
% of control ([5]; at 1 µM): 100% | % of control ([5]; at 10 µM): 73%

% of inhibition [6]: 2.4%
SMILES: CC[C@@H]1[C@H](F)C(=O)N[C@@H]1COc1nccc2cc(C(N)=O)c(OC)cc12 [ZIMLOVISERTIB]

% of control [7]: 2.9%
SMILES: CCc1ccccc1C(=O)Nc1n[nH]c2c(C)c(F)c(C3C(C#N)=C(C)N(C)C(C)=C3C#N)cc12 [BAY-3827]
